US11547702B2, “Use of amlexanox” (SHANGHAI MICROPORT MEDICAL (GROUP) CO., LTD., priority 2016, dated 2023)

Key:
[1] = test system: Human Aortic Smooth Muscle Cells (HASMCs); assay: In vitro cell proliferation test (MTT colorimetry), smooth muscle cells; settings: 72 hours, based on the control group, average of 6 tests
[2] = test system: Human Aortic Endothelial Cells (HAECs); assay: In vitro cell proliferation test (MTT colorimetry), endothelial cells; settings: 72 hours, based on the control group, average of 6 tests
[3] = 1 μmol of each drug in culture medium
[4] = 6 μmol of each drug in culture medium
[5] = 10 μmol of each drug in culture medium

Row | SMILES | Smooth muscle cell inhibition rate (%) [1, 3] [%] | Smooth muscle cell inhibition rate (%) [1, 4] [%] | Smooth muscle cell inhibition rate (%) [1, 5] [%] | Endothelial cell inhibition rate (%) [2, 3] [%] | Endothelial cell inhibition rate (%) [2, 4] [%] | Endothelial cell inhibition rate (%) [2, 5] [%]
1 | CC(C)c1ccc2oc3nc(N)c(C(=O)O)cc3c(=O)c2c1 [Amlexanox, 2-amimo-7-isopropyl-5-oxo-5H-[1]benzopyrano-[2,3,-b]pyridine-3-carboxylic acid] | 11.6 | 19.0 | 23.4 | 0.9 | 2.8 | 3.5
2 | CO[C@H]1C[C@@H]2CC[C@@H](C)[C@@](O)(O2)C(=O)C(=O)N2CCCC[C@H]2C(=O)O[C@H]([C@H](C)C[C@@H]2CC[C@@H](O)[C@H](OC)C2)CC(=O)[C@H](C)/C=C(\C)[C@@H](O)[C@@H](OC)C(=O)[C@H](C)C[C@H](C)/C=C/C=C/C=C/1C [Rapamycin, rapamycin] | 9.1 | 18.9 |  | 7.7 | 16.0 | 21.8
